How the values were obtained:
Assay in all cases: concentration in plasma after dosing
[1] = tested on: Rat; conditions: 1.5 h; dosed: DL-Camphor; 6 mg/kg; iv; Male; F344
[2] = tested on: Rat; conditions: dosed: DL-Camphor, 6 mg/kg, iv, Female, F344
[3] = tested on: Rat; conditions: dosed: DL-Camphor, 6 mg/kg, iv, Female, F344; remark: listed apart in the source
[4] = tested on: Rat; conditions: iv, F344
[5] = tested on: Rat; conditions: dosed: DL-Camphor, 6 mg/kg, iv, Female, F344; remark: listed apart in the source
[6] = tested on: Rat; conditions: dosed: DL-Camphor, 6 mg/kg, iv, Female, F344; remark: listed apart in the source
[7] = tested on: Rat; conditions: 1.5 h; dosed: DL-Camphor; 6 mg/kg; iv; Female; F344
[8] = tested on: Rat; conditions: dosed: DL-Camphor, 6 mg/kg, iv, Female, F344; remark: listed apart in the source
[9] = tested on: Rat; conditions: dosed: DL-Camphor, 6 mg/kg, iv, Female, F344; remark: listed apart in the source
[10] = tested on: Rat; conditions: dosed: DL-Camphor, 6 mg/kg, iv, Female, F344; remark: listed apart in the source
[11] = tested on: Rat; conditions: dosed: DL-Camphor, 6 mg/kg, iv, Male, F344
[12] = tested on: Rat; conditions: dosed: DL-Camphor, 6 mg/kg, iv, Male, F344; remark: listed apart in the source
[13] = tested on: Rat; conditions: dosed: DL-Camphor, 6 mg/kg, iv, Male, F344; remark: listed apart in the source
[14] = tested on: Rat; conditions: dosed: DL-Camphor, 6 mg/kg, iv, Female, F344; remark: listed apart in the source
[15] = tested on: Rat; conditions: 1 h; dosed: DL-Camphor; 6 mg/kg; iv; Female; F344
[16] = tested on: Rat; conditions: dosed: DL-Camphor, 6 mg/kg, iv, Male, F344; remark: listed apart in the source
[17] = tested on: Rat; conditions: dosed: DL-Camphor, 6 mg/kg, iv, Male, F344; remark: listed apart in the source
[18] = tested on: Rat; conditions: dosed: DL-Camphor, 6 mg/kg, iv, Male, F344; remark: listed apart in the source
[19] = tested on: Rat; conditions: 1.5 h; dosed: DL-Camphor; 6 mg/kg; iv; Female; F344; remark: listed apart in the source
[20] = tested on: Rat; conditions: 1 h; dosed: DL-Camphor; 6 mg/kg; iv; Female; F344; remark: listed apart in the source
[21] = tested on: Rat; conditions: dosed: DL-Camphor, 6 mg/kg, iv, Male, F344; remark: listed apart in the source
[22] = tested on: Rat; conditions: dosed: DL-Camphor, 6 mg/kg, iv, Male, F344; remark: listed apart in the source
[23] = tested on: Rat; conditions: dosed: DL-Camphor, 6 mg/kg, iv, Male, F344; remark: listed apart in the source
[24] = tested on: Rat; conditions: 6 h; dosed: DL-Camphor; 6 mg/kg; iv; Male; F344
[25] = tested on: Rat; conditions: dosed: DL-Camphor, 6 mg/kg, iv, Male, F344; remark: listed apart in the source
[26] = tested on: Rat; conditions: 1 h; dosed: Bromodichloromethane; 10 mg/kg; iv; Female; F344
[27] = tested on: Rat; conditions: dosed: Bromodichloromethane, 10 mg/kg, iv, Male, F344
[28] = tested on: Rat; conditions: dosed: Bromodichloromethane, 10 mg/kg, iv, Female, F344
[29] = tested on: Rat; conditions: dosed: Bromodichloromethane, 10 mg/kg, iv, Male, F344; remark: listed apart in the source
[30] = tested on: Rat; conditions: dosed: Bromodichloromethane, 10 mg/kg, iv, Male, F344; remark: listed apart in the source
[31] = tested on: Rat; conditions: 1 h; dosed: Bromodichloromethane; 10 mg/kg; iv; Female; F344; remark: listed apart in the source
[32] = tested on: Rat; conditions: 10 min; dosed: Bromodichloromethane; 10 mg/kg; iv; Male; F344
[33] = tested on: Rat; conditions: dosed: Bromodichloromethane, 10 mg/kg, iv, Female, F344; remark: listed apart in the source
[34] = tested on: Rat; conditions: dosed: Bromodichloromethane, 10 mg/kg, iv, Female, F344; remark: listed apart in the source
[35] = tested on: Rat; conditions: dosed: Bromodichloromethane, 10 mg/kg, iv, Male, F344; remark: listed apart in the source
[36] = tested on: Rat; conditions: dosed: Bromodichloromethane, 10 mg/kg, iv, Female, F344; remark: listed apart in the source
[37] = tested on: Rat; conditions: 10 min; dosed: Bromodichloromethane; 10 mg/kg; iv; Male; F344; remark: listed apart in the source
[38] = tested on: Rat; conditions: dosed: Bromodichloromethane, 10 mg/kg, iv, Female, F344; remark: listed apart in the source
[39] = tested on: Rat; conditions: dosed: Bromodichloromethane, 10 mg/kg, iv, Female, F344; remark: listed apart in the source
[40] = tested on: Rat; conditions: dosed: Bromodichloromethane, 10 mg/kg, iv, Female, F344; remark: listed apart in the source
[41] = tested on: Rat; conditions: dosed: Bromodichloromethane, 10 mg/kg, iv, Male, F344; remark: listed apart in the source
[42] = tested on: Rat; conditions: 1 h; dosed: Bromodichloromethane; 10 mg/kg; iv; Male; F344
[43] = tested on: Rat; conditions: 1 h; dosed: Bromodichloromethane; 10 mg/kg; iv; Male; F344; remark: listed apart in the source
[44] = tested on: Rat; conditions: dosed: Bromodichloromethane, 10 mg/kg, iv, Female, F344; remark: listed apart in the source
[45] = tested on: Rat; conditions: 10 min; dosed: Bromodichloromethane; 10 mg/kg; iv; Female; F344
[46] = tested on: Rat; conditions: dosed: Bromodichloromethane, 10 mg/kg, iv, Male, F344; remark: listed apart in the source
[47] = tested on: Rat; conditions: 4 h; dosed: Bromodichloromethane; 10 mg/kg; iv; Male; F344
[48] = tested on: Rat; conditions: dosed: Bromodichloromethane, 10 mg/kg, iv, Male, F344; remark: listed apart in the source
[49] = tested on: Rat; conditions: dosed: Bromodichloromethane, 10 mg/kg, iv, Female, F344; remark: listed apart in the source
[50] = tested on: Rat; conditions: dosed: Bromodichloromethane, 10 mg/kg, iv, Female, F344; remark: listed apart in the source

CC12CCC(CC1=O)C2(C)C (racemic) [DL-Camphor]
Conditions | concentration in plasma [ng/mL]
[1] | 228
[7] | 240
[15] | 411
[19] | 121
[20] | 391
[24] | 87

Conditions | concentration in plasma [ng/mL]
[2], 0.25 h | 132
[2], 6 h | 70.2
[3], 2 h | 191
[3], 5 min | 3070
[5], 0.75 h | 114
[5], 8 h | 46.7
[6], 0.5 h | 848
[6], 4 h | 62.7
[8], 2 h | 152
[8], 5 min | 2850
[9], 0.5 h | 612
[9], 4 h | 61.7
[10], 0.25 h | 1520
[10], 6 h | 18.3
[11], 1 h | 257
[11], 10 h | 77.4
[12], 0.5 h | 648
[12], 4 h | 127
[13], 0.75 h | 545
[13], 8 h | 49.1
[14], 0.75 h | 526
[14], 8 h | 98.3
[16], 2 h | 205
[16], 5 min | 3700
[17], 0.25 h | 1710
[17], 6 h | 88.1
[18], 0.75 h | 577
[18], 8 h | 31.3
[21], 1 h | 411
[21], 10 h | 35
[22], 0.5 h | 258
[22], 4 h | 135
[23], 0.25 h | 1680
[23], 1.5 h | 197
[25], 2 h | 205
[25], 5 min | 4050

concentration in plasma [ng/mL], [4], dosed: DL-Camphor, 6 mg/kg
Conditions | Female | Male
0.25 h | 1250 | 1350
0.5 h | 731 | 839
0.75 h | 527 | 617
1 h | 96 | 326
1.5 h | 332 | 196
2 h | 221 | 186
4 h | 65.9 | 138
5 min | 3000 | 4140
6 h | 222 | 76.7
8 h | – | 31
10 h | 10.3 | 27.3

ClC(Cl)Br [Bromodichloromethane]
Conditions | concentration in plasma [ng/mL]
[26] | 68
[31] | 92.4
[32] | 1310
[37] | 1640
[42] | 186
[43] | 151
[45] | 779
[47] | 11.1

Conditions | concentration in plasma [ng/mL]
[27], 2 min | 2880
[27], 6 h | 16.1
[28], 0.25 h | 618
[28], 8 h | 3.69
[29], 0.5 h | 402
[29], 2 h | 42.5
[30], 2 min | 3310
[30], 6 h | 26.3
[33], 4 h | 9.88
[33], 5 min | 2300
[34], 2 h | 18.4
[34], 10 min | 926
[35], 2 h | 56.3
[35], 5 min | 2210
[36], 0.5 h | 307
[36], 2 h | 40.2
[38], 0.25 h | 44.5
[38], 8 h | 6.93
[39], 0.5 h | 67.9
[39], 2 h | 87.6
[40], 0.5 h | 203
[40], 4 h | 13.8
[41], 0.25 h | 1340
[41], 8 h | 3.44
[44], 2 min | 1680
[44], 6 h | 11.9
[46], 0.25 h | 535
[46], 8 h | 6.97
[48], 4 h | 21.8
[48], 5 min | 2570
[49], 2 min | 2280
[49], 6 h | 8.65
[50], 0.25 h | 341
[50], 8 h | 10.7

concentration in plasma [ng/mL], [4], dosed: Bromodichloromethane, 10 mg/kg
Conditions | Female | Male
0.25 h | 70.4 | 1070
0.5 h | 312 | 220
1 h | 62.1 | 105
2 h | 63.4 | 60.8
2 min | 2590 | 2820
4 h | 7.81 | 15.7
5 min | 1170 | 1100
6 h | 7.86 | 31.4
8 h | 6.28 | 4.65
10 min | 589 | 1070
12 h | – | 3.96

Source: EPA's CvTdb concentration-time database
